Laboratory results as given in PubChem BioAssay (NCI).
Where “and” joins values, the source holds several entries; their conditions need not be identical. Equal values may be shown once.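 How tested: cells in 96-well plates exposed to compound for 48 hours at five concentrations. GI50: concentration for 50% inhibition of growth. TGI: concentration producing complete growth inhibition.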

What was measured:
Experiment in all cases: DTP human tumour cell line panel, 48 h
MDA-N = tested on: MDA-N
SK-MEL-28 melanoma = tested on: SK-MEL-28 melanoma
SF-295 CNS = tested on: SF-295 CNS
SN12C renal = tested on: SN12C renal
ACHN renal = tested on: ACHN renal
HOP-92 NSCLC = tested on: HOP-92 NSCLC
EKVX NSCLC = tested on: EKVX NSCLC
OVCAR-3 ovarian = tested on: OVCAR-3 ovarian
TK-10 renal = tested on: TK-10 renal
HCC-2998 colon = tested on: HCC-2998 colon
A549 NSCLC = tested on: A549 NSCLC
SF-268 CNS = tested on: SF-268 CNS
SNB-19 CNS = tested on: SNB-19 CNS
UO-31 renal = tested on: UO-31 renal
T-47D breast = tested on: T-47D breast
KM12 colon = tested on: KM12 colon
UACC-62 melanoma = tested on: UACC-62 melanoma
RPMI-8226 leukemia = tested on: RPMI-8226 leukemia
SK-OV-3 ovarian = tested on: SK-OV-3 ovarian
MOLT-4 leukemia = tested on: MOLT-4 leukemia
HCT-116 colon = tested on: HCT-116 colon
HCT-15 colon = tested on: HCT-15 colon
MDA-MB-435 = tested on: MDA-MB-435
COLO 205 colon = tested on: COLO 205 colon
SK-MEL-5 melanoma = tested on: SK-MEL-5 melanoma
SR leukemia = tested on: SR leukemia
HL-60(TB) leukemia = tested on: HL-60(TB) leukemia
HOP-62 NSCLC = tested on: HOP-62 NSCLC
A498 renal = tested on: A498 renal
MALME-3M melanoma = tested on: MALME-3M melanoma
HT29 colon = tested on: HT29 colon
K-562 leukemia = tested on: K-562 leukemia
SW-620 colon = tested on: SW-620 colon
M14 melanoma = tested on: M14 melanoma
NCI-H226 lung = tested on: NCI-H226 lung
DU-145 prostate = tested on: DU-145 prostate
SK-MEL-2 melanoma = tested on: SK-MEL-2 melanoma
UACC-257 melanoma = tested on: UACC-257 melanoma
MDA-MB-231 breast = tested on: MDA-MB-231 breast
OVCAR-5 ovarian = tested on: OVCAR-5 ovarian
LOX IMVI melanoma = tested on: LOX IMVI melanoma
SF-539 CNS = tested on: SF-539 CNS
BT-549 breast = tested on: BT-549 breast
CCRF-CEM leukemia = tested on: CCRF-CEM leukemia
U251 CNS = tested on: U251 CNS
NCI-H460 lung = tested on: NCI-H460 lung
NCI-H23 lung = tested on: NCI-H23 lung
CAKI-1 renal = tested on: CAKI-1 renal
MCF7 breast = tested on: MCF7 breast
OVCAR-8 ovarian = tested on: OVCAR-8 ovarian
NCI/ADR-RES ovarian = tested on: NCI/ADR-RES ovarian
OVCAR-4 ovarian = tested on: OVCAR-4 ovarian
NCI-H522 lung = tested on: NCI-H522 lung
IGROV1 ovarian = tested on: IGROV1 ovarian
PC-3 prostate = tested on: PC-3 prostate
786-0 renal = tested on: 786-0 renal
RXF 393 renal = tested on: RXF 393 renal
SNB-75 CNS = tested on: SNB-75 CNS

`C=C1c2nc3ccccc3n2C=C(c2ccc(Cl)cc2)N1c1ccc(OCCN2CCCCC2)cc1` gave a TGI (MDA-N) of 45 µM, a GI50 (SK-MEL-28 melanoma) of 32.8 µM and a TGI (SK-MEL-28 melanoma) of over 100 µM. It also gave a TGI (SF-295 CNS) of over 45 µM, a TGI (SN12C renal) of over 45 µM and a GI50 (ACHN renal) of over 100 µM. The TGI (ACHN renal) was over 100 µM, the GI50 (HOP-92 NSCLC) was over 100 µM and the TGI (HOP-92 NSCLC) was over 100 µM. It also gave a TGI (EKVX NSCLC) of over 100 µM, a TGI (OVCAR-3 ovarian) of over 45 µM and a GI50 (TK-10 renal) of over 100 µM. For the same compound, the TGI (TK-10 renal) was over 100 µM, the TGI (HCC-2998 colon) was over 100 µM and the GI50 (A549 NSCLC) was over 100 µM. The TGI (A549 NSCLC) was over 100 µM, the TGI (SF-268 CNS) was 45 µM and the GI50 (SNB-19 CNS) was 4.53 µM. For the same compound, the TGI (SNB-19 CNS) was over 100 µM, the TGI (UO-31 renal) was over 45 µM and the GI50 (T-47D breast) was over 100 µM. For the same compound, the TGI (T-47D breast) was over 100 µM, the GI50 (KM12 colon) was over 100 µM and the TGI (KM12 colon) was over 100 µM. The GI50 (UACC-62 melanoma) was over 100 µM, the TGI (UACC-62 melanoma) was over 100 µM and the TGI (RPMI-8226 leukemia) was 45 µM. It also gave a GI50 (SK-OV-3 ovarian) of over 100 µM, a TGI (SK-OV-3 ovarian) of over 100 µM and a GI50 (MOLT-4 leukemia) of 0.553 µM. The TGI (MOLT-4 leukemia) was > 45 µM and 9.22 µM, the TGI (HCT-116 colon) was over 45 µM and the TGI (HCT-15 colon) was over 45 µM. For the same compound, the GI50 (MDA-MB-435) was 0.772 µM, the TGI (MDA-MB-435) was 45 µM and > 100 µM and the GI50 (COLO 205 colon) was over 100 µM. For the same compound, the TGI (COLO 205 colon) was over 100 µM, the TGI (SK-MEL-5 melanoma) was over 45 µM and the GI50 (SR leukemia) was 0.0439 µM. For the same compound, the TGI (HL-60(TB) leukemia) was 45 µM, the GI50 (HOP-62 NSCLC) was over 100 µM and the TGI (HOP-62 NSCLC) was over 100 µM. The GI50 (A498 renal) was over 100 µM, the TGI (A498 renal) was over 100 µM and the GI50 (MALME-3M melanoma) was 0.415 µM. The TGI (MALME-3M melanoma) was 45 µM and > 100 µM, the GI50 (HT29 colon) was over 100 µM and the TGI (HT29 colon) was over 100 µM. For the same compound, the GI50 (K-562 leukemia) was 1.09 µM, the TGI (K-562 leukemia) was over 100 µM and the TGI (SW-620 colon) was over 45 µM. The GI50 (M14 melanoma) was over 100 µM, the TGI (M14 melanoma) was over 100 µM and the TGI (NCI-H226 lung) was over 100 µM. For the same compound, the GI50 (DU-145 prostate) was over 100 µM, the TGI (DU-145 prostate) was over 100 µM and the GI50 (SK-MEL-2 melanoma) was over 100 µM. The TGI (SK-MEL-2 melanoma) was over 100 µM, the GI50 (UACC-257 melanoma) was over 100 µM and the TGI (UACC-257 melanoma) was 37.4 µM and > 100 µM. The GI50 (MDA-MB-231 breast) was over 100 µM, the TGI (MDA-MB-231 breast) was over 100 µM and the GI50 (OVCAR-5 ovarian) was over 100 µM. The TGI (OVCAR-5 ovarian) was over 100 µM, the TGI (LOX IMVI melanoma) was over 45 µM and the TGI (SF-539 CNS) was over 100 µM. For the same compound, the GI50 (BT-549 breast) was over 100 µM, the TGI (BT-549 breast) was over 100 µM and the GI50 (CCRF-CEM leukemia) was 0.226 µM. It also gave a GI50 (U251 CNS) of 3.75 µM, a TGI (U251 CNS) of over 100 µM and a GI50 (NCI-H460 lung) of 1.2 µM. The TGI (NCI-H460 lung) was 45 µM and > 100 µM, the GI50 (NCI-H23 lung) was over 100 µM and the TGI (NCI-H23 lung) was over 100 µM. For the same compound, the TGI (CAKI-1 renal) was over 45 µM, the GI50 (MCF7 breast) was over 100 µM and the TGI (MCF7 breast) was over 100 µM. For the same compound, the TGI (OVCAR-8 ovarian) was over 45 µM, the GI50 (NCI/ADR-RES ovarian) was 2.14 µM and the TGI (NCI/ADR-RES ovarian) was over 100 µM. For the same compound, the TGI (OVCAR-4 ovarian) was over 45 µM, the TGI (NCI-H522 lung) was 45 µM and the TGI (IGROV1 ovarian) was over 45 µM. The GI50 (PC-3 prostate) was over 100 µM, the TGI (PC-3 prostate) was over 100 µM and the TGI (786-0 renal) was over 45 µM. The GI50 (RXF 393 renal) was over 100 µM and the TGI (RXF 393 renal) was over 100 µM.

For `COC(=O)[C@]12CSC[C@H]1C[C@H](c1cccc3ccccc13)N2`, the TGI (MDA-N) was over 100 µM, the TGI (SK-MEL-28 melanoma) was over 100 µM and the TGI (SF-295 CNS) was over 100 µM. For the same compound, the TGI (SN12C renal) was over 100 µM, the TGI (ACHN renal) was over 100 µM and the TGI (HOP-92 NSCLC) was over 100 µM. For the same compound, the TGI (EKVX NSCLC) was over 100 µM, the TGI (OVCAR-3 ovarian) was over 100 µM and the TGI (HCC-2998 colon) was over 100 µM. It also gave a TGI (A549 NSCLC) of over 100 µM, a TGI (SNB-75 CNS) of over 100 µM and a TGI (SNB-19 CNS) of over 100 µM. For the same compound, the TGI (UO-31 renal) was over 100 µM, the TGI (T-47D breast) was over 100 µM and the TGI (KM12 colon) was over 100 µM. For the same compound, the TGI (UACC-62 melanoma) was over 100 µM, the TGI (RPMI-8226 leukemia) was over 100 µM and the TGI (SK-OV-3 ovarian) was over 100 µM. It also gave a TGI (MOLT-4 leukemia) of 61.4 µM, a TGI (HCT-116 colon) of over 100 µM and a TGI (HCT-15 colon) of over 100 µM. For the same compound, the TGI (MDA-MB-435) was over 100 µM, the TGI (COLO 205 colon) was over 100 µM and the TGI (SK-MEL-5 melanoma) was over 100 µM. For the same compound, the TGI (SR leukemia) was over 100 µM, the TGI (HOP-62 NSCLC) was over 100 µM and the TGI (A498 renal) was over 100 µM. It also gave a TGI (K-562 leukemia) of over 100 µM, a TGI (SW-620 colon) of over 100 µM and a TGI (M14 melanoma) of over 100 µM. For the same compound, the TGI (NCI-H226 lung) was over 100 µM, the TGI (DU-145 prostate) was over 100 µM and the TGI (SK-MEL-2 melanoma) was over 100 µM. The TGI (UACC-257 melanoma) was over 100 µM, the TGI (MDA-MB-231 breast) was over 100 µM and the TGI (OVCAR-5 ovarian) was over 100 µM. For the same compound, the TGI (LOX IMVI melanoma) was over 100 µM, the TGI (SF-539 CNS) was over 100 µM and the TGI (BT-549 breast) was over 100 µM. It also gave a TGI (CCRF-CEM leukemia) of over 100 µM, a TGI (U251 CNS) of over 100 µM and a TGI (NCI-H460 lung) of over 100 µM. The TGI (NCI-H23 lung) was over 100 µM, the TGI (CAKI-1 renal) was over 100 µM and the TGI (MCF7 breast) was over 100 µM. For the same compound, the TGI (OVCAR-8 ovarian) was over 100 µM, the TGI (NCI/ADR-RES ovarian) was over 100 µM and the TGI (IGROV1 ovarian) was over 100 µM. The TGI (PC-3 prostate) was over 100 µM and the TGI (786-0 renal) was over 100 µM.
